In brackets after ≈: the same amount, converted by molar mass.
What was measured:
Type in all cases: cell-based, Streptococcus mutans
S. mutans [1] = assay: Agar diffusion test of fluoride varnish of hydrogenated rosin mixed with antibacterial substance, inhibition zone; conditions: for Inhibition zone, Fluoride varnish + 1 mM substance / Inhibition zone, Fluoride varnish + 10 mM substance: substance mixed 1:1 with fluoride varnish, positive control = ampicillin alone
Method: Antibacterial substance powders were dissolved in DMSO to 100 mM and stored. It was diluted with DMSO to prepare 20 mM and 2 mM antibacterial substances.
Specifically, S. mutans was primarily cultured in a BHI medium in a CO2 incubator at 37°C. for 24 hours. Then, 200 μL of a suspension of S. mutans was inoculated into BHI and secondarily cultured for 6 hours. Then, the OD value was measured with Eppendorf Biophotometer plus. After the measurement, the bacteria were mixed with top agar and then inoculated into the agar medium containing base agar. After top agar hardened, a 6 mm diameter paper disc was placed on the agar medium.
(§1) 5 μL of each of 0.1 mM, 1 mM and 10 mM antibacterial substances was dropped on the paper disc. 10 μL/ml of ampicilin was used as the positive control, and PBS was used as the negative control. After culturing in a CO2 incubator at 37°C for 24 hours, the diameter of the S. mutans inhibition zone formed around the paper disc was measured in two perpendicular locations and the average was calculated to evaluate the antibacterial activities. The average was expressed in mm.
Fluoride varnishes mixed with an antibacterial substance which comprise an antibacterial substance tested in Test Example 1 were prepared according to the method described in Example 2 and the antibacterial activities thereof were tested.

S. mutans (ATCC 25175) = assay: Agar diffusion test (paper disc), antibacterial substance alone
Method: as §1, with “Specifically, S. mutans was primarily cultured in a BHI medium in a CO2 incubator at 37°C. for 24 hours. Then, 200 μL of a suspension of S. mutans was inoculated into BHI and secondarily cultured for 6 hours. Then, the OD value was measured with Eppendorf Biophotometer plus. After the measurement, the bacteria were mixed with top agar and then inoculated into the agar medium containing base agar. After top agar hardened, a 6 mm diameter paper disc was placed on the agar medium. 5” for “5”

S. mutans [2] = assay: Minimum inhibitory concentration (MIC) and minimal bactericidal concentration (MBC), 96-well BHI broth dilution; conditions: Streptococcus mutans
Method: The minimum inhibitory concentration and minimal bactericidal concentration of antibacterial substances were identified using S. mutans, which is related to dental caries, as the strain. Specifically, in order to measure MIC, a 96-well plate containing 100 μL of BHI broth per well was used. Antibacterial substances were used at a concentration of 16 mM, and the substance No. 1-2 of Example 1 was used at a concentration of 1 mM. The antibacterial materials were transferred to the first well and diluted stepwise. The substance No. 1-2 was diluted to 1 mM to 0.004375 mM and the other antibacterial substances were diluted to 16 mM to 0.007 mM. S. mutans was activated using BHI broth as the medium and cultured in a CO2 incubator at 37° C. for 24 hours. Then, the bacteria were cultured for another 6 hours, and then 100 μL thereof was added to each well of the 96-well plate. After 24-hour culture, the minimum inhibitory concentration was determined by measuring the absorbance at 600 nm with Enzyme-linked immuno-assay reader (Spectra MAX250, Molecular Devices Co.).

S. mutans [3] = assay: Formation of Semi-inhibition zone by fluoride varnish mixed with antibacterial substance (agar diffusion); conditions: Table 4; substance mixed 1:1 with fluoride varnish; positive control = ampicillin alone
Description: In addition, the formation of Semi-inhibition zone was investigated according to the same method as in Test Example 1.

CC1(C)C=Cc2cc(C(=O)/C=C/c3ccc(O)cc3)c(O)cc2O1 [No. 5, Bavachromene]
Inhibition zone, Fluoride varnish + 1 mM substance (S. mutans [1]; primary test (Table 2)): 10.27 mm | Inhibition zone, Fluoride varnish + 10 mM substance (S. mutans [1]; primary test (Table 2)): 10.60 mm | antibacterial activities of fluoride varnish mixed with substance compared with a fluoride varnish alone (in words) (S. mutans [1]; primary test, 1 mM or 10 mM antibacterial substance): significant antibacterial activities | Inhibition zone, Fluoride varnish + 1 mM substance (S. mutans [1]; secondary test (Table 3)): 8.66 mm | Inhibition zone, Fluoride varnish + 10 mM substance (S. mutans [1]; secondary test (Table 3)): 10.48 mm | antibacterial activities against S. mutans in all conditions (in words) (S. mutans (ATCC 25175); 10 mM, 1 mM and 0.1 mM): significant antibacterial activities | diameter of the S. mutans inhibition zone, 0.1 mM antibacterial substance alone (S. mutans (ATCC 25175); 5 μL of 0.1 mM substance on 6 mm paper disc, 24 h, positive control 10 μL/ml ampicillin): 6 mm | diameter of the S. mutans inhibition zone, 1 mM antibacterial substance alone (S. mutans (ATCC 25175); 5 μL of 1 mM substance on 6 mm paper disc, 24 h, positive control 10 μL/ml ampicillin): 8.75 mm | diameter of the S. mutans inhibition zone, 10 mM antibacterial substance alone (S. mutans (ATCC 25175); 5 μL of 10 mM substance on 6 mm paper disc, 24 h, positive control 10 μL/ml ampicillin): 9.74 mm | antibacterial activities against S. mutans (in words) (S. mutans (ATCC 25175); screening from a total 100 substances): significant antibacterial activities | MIC (S. mutans [2]; 24 h, BHI broth, 24-hour culture, absorbance at 600 nm, read-out: MIC): 31 µM (≈ 9.99 µg/mL) | MBC (S. mutans [2]; read-out: MBC): 125 µM (≈ 40.3 µg/mL) | Semi-inhibition zone, Fluoride varnish + 1 mM substance (S. mutans [3]): 20.79 mm | Semi-inhibition zone, Fluoride varnish + 10 mM substance (S. mutans [3]): 25.235 mm
